Series [1] is described as follows: In vitro stability of Tc-99m complexes (radiochemical purity by thin layer chromatography). As to conditions: for remaining at 2 min: 2 min post formation; for remaining at 2 min / remaining at 1 h / remaining at 2 h: dl/meso mixture, read-out: % of the desired Tc-99m complex; for remaining at 1 h: 60 min post formation; for remaining at 2 h: 120 min post formation; for in vitro stability of the Tc-99m complex: in words, complex of compound 1 versus compound 2. The class given is physicochemical. The protocol:
Glass fibre strips impregnated with silica gel form the stationary phase of a fast and accurate analytical system. Two strips, each measuring 20 cm×2 cm were used in each analysis. Approximately five microliters of the solution containing the complex was applied 1 cm from the base of each strip, and one strip developed with saline, the other with methylethylketone (MEK).
Determination of the distribution of radioactivity along each strip was conducted by means of a 100 channel analysis system interfaced to a Nova computer, programmed for peak integration. The Table below indicates the RF values of the major components of the Tc-99m solutions. The observed radiochemical purity of the Tc-99m complexes was generally greater than 80%.
Radiochemical purity determinations by thin layer chromatography were carried out at several time points following formation of the technetium complexes of compounds 1 and 2 (a dl/meso mixture in each case) to determine the stability of the complexes.

Series [2] in a line: Animal biodistribution of Tc-99m complexes of ligands, no separation of stereoisomers (Example 22). The class given is in vivo, rats. As to conditions: for % id/organ, Blood / % id/organ, Brain / % id/organ, Heart / % id/organ, Liver: i.v. rats, mean of 3 animals. The protocol: The ratio of diastereoisomers in the Tc-99m complexes used in this experiment is not known.
The results at 2 minutes and 1 hour p.i. are the mean of 3 animals.
The results at 2 hours p.i. are the mean of 2 animals.

Series [3] in a line: Clinical comparison of dl and meso diastereoisomers of Compound 1, whole body scanning (Example 25a). The class given is in vivo, normal volunteer subjects (human). As to conditions: 20 minutes p.i.; mean; human. How it is done:
All clinical studies, involving comparisons between the Tc-99m complexes of dl and meso, and d,l and dl stereoisomers of Compound 1 were conducted in normal volunteer subjects at Aberdeen Royal Infirmary.
(a) Comparison of dl and meso diastereoisomers of Compound 1
Data is then taken from area of interest studies employing a whole body scanning device.

Series [4] is described as follows: Blood clearance in human volunteers. The series is classed as in vivo, human volunteer subjects. As to conditions: for % id in blood: unseparated dl/meso mixture, human. The source says:
(§1) The following data allows comparison of the relative performance of the complexes of compounds 1 and 2 (an unseparated dl/meso mixture in each case) in human volunteer subjects.

Series [5] in a line: Whole body distribution in human volunteers. The series is classed as in vivo, human volunteer subjects. As to conditions: unseparated dl/meso mixture; for Whole body distribution, Bladder / Whole body distribution, Brain / Whole body distribution, Liver: 2 hrs p.i., human.
Excerpt: as §1
(ii) Whole body distribution

The nature of series [6]: Tomographic imaging of the brain in man. The note with it: in words; unseparated dl/meso mixture; human. The series is classed as in vivo, normal volunteers (human). How it is done:
Tomographic images of the brain were determined using the same complexes in normal volunteers. The device used was a single head rotating gamma camera and minicomputer system. 64 25-second images were accumulated by the gamma camera during 360° circular rotation of the head and shoulders of the volunteer.

For another series, the system named is leucocytes. As to the kind of experiment: In vitro labelling of leucocytes. The class given is cell-based. The note with it: ambient temperature. How it is done:
A solution of the technetium-99m complex of compound 1 was made as follows. A vial contained 0.5 mg compound 1; […] stannous chloride dihydrate; and 4.5 mg sodium chloride; freeze-dried and sealed under nitrogen. To this was added 5.0 ml of sodium pertechnetate eluate from a 135mCi technetium generator.
Mixed leucocytes were obtained from 34 ml of acid citrate anticoagulated blood by dextran sedimentation. These were washed twice and resuspended in 2.0 ml phosphate buffered saline containing approximately 0.25 mg/ml prostaglandin El. The suspension was incubated with 0.2 ml of the solution of the technetium-99m complex of compound 1. Incubation was at ambient temperature, and samples were removed at intervals for analysis. After two minutes, 60% of the radioactivity was associated with blood cells; after 5 minutes, 83% and after 10 minutes, 89%.

A short description of series [7]: Rat biodistribution of Tc-99m complexes from isolated stereoisomers (Example 24). As to conditions: d- versus l-enantiomer; rats.
Experimental: (§2) 0.1 ml of the Tc-99m complex solution was administered by intravenous injection (lateral tail vein) to each of five or six rats (140-220 g). The injected dose was equivalent to approximately 1 mCi of Tc-99m. Three rats were sacrificed at 2 minutes post injection, and 3 at 1 hour or 2 at 2 hours post injection. At dissection, the organs and blood samples shown in the following table were taken, and assayed for radioactivity. The uptake in each organ or tissue was calculated as a percentage of the total activity recovered.
(§3) Data in Tables (a) and (b) are the mean from 3 animals at each time point.
The nature of series [8]: Clinical comparison of d, l and dl stereoisomers of Compound 1 (Example 25b). The series is classed as in vivo, normal volunteers (human). As to conditions: 30 minutes p.i.; mean of three studies; human.
Experimental: The following table gives the mean of three studies for each stereoisomer, of percentage of injected dose in normal volunteers at 30 minutes p.i.
For series [9] the following is noted: rat, in vivo.
Experimental: as §2, §3

Entries after “also recorded” stand apart in the source; their conditions may differ. Read-outs that look alike come from different tables or passages of the source.

In the case of `CC(=NO)C(C)NCC(C)(C)CNC(C)C(C)=NO` (racemic) [Compound 1, 4,8-diaza-3,6,6,9-tetramethylundecane-2,10-dione bis oxime], in series [1], the remaining at 2 min turned out to be 92%, the remaining at 1 h turned out to be 87%, the remaining at 2 h worked out at 79% and the “in vitro stability of the Tc-99m complex” value was “only slow in vitro degradation”. In addition, in series [2] (2 min pi), the “% id/organ, Blood” value was found to be 16.7 % id/organ; the “% id/organ, Brain” value was 1.5 % id/organ; the “% id/organ, Heart” value stood at 0.4 % id/organ; the “% id/organ, Liver” value came to 8.4 % id/organ. Also, in series [2] (1 hr pi), the “% id/organ, Blood” value is 19.6 % id/organ; the “% id/organ, Brain” value was 1.2 % id/organ; the “% id/organ, Heart” value worked out at 0.2 % id/organ; the “% id/organ, Liver” value was 5.4 % id/organ. Moreover, the “uptake in the brain of rats” value in [2] (in words, unseparated dl/meso mixture) is reported as “Good uptake in the brain”. In addition, in series [3], the “% injected activity, Bladder + Urine” value was 1.4 % injected activity; the “% injected activity, Brain” value stood at 1.95 % injected activity; the “% injected activity, Kidneys” value is recorded as 1.95 % injected activity; the “% injected activity, Liver” value amounted to 13.0 % injected activity. For the same compound, the “% id in blood” value in series [4] (14 minutes post injection) is listed as 9.54 % id. The “% id in blood” value in [4] (40 minutes post injection) came out at 7.73 % id. Further, the “% id in blood” value in series [4] (60 minutes post injection) is listed as 6.38 % id. The “% id in blood” value in series [4] (250 minutes post injection) came out at 5.26 % id. Besides, in [5], the “Whole body distribution, Bladder” value came to 3.9; the “Whole body distribution, Brain” value turned out to be 3.70; the “Whole body distribution, Liver” value is listed as 23.35. In series [5] (in words), the “removal of radioactivity from brain in humans” value was “Slow removal of radioactivity from brain” and the “uptake in the brain of humans” value is given as “Good uptake in the brain”. For the same compound, the “quality of tomographic images of the brain” value in series [6] is given as “Good quality tomographic images of the brain”. Moreover, the “radioactivity associated with blood cells” value (shortened to “radioactivity associated”) in the series on leucocytes (after 5 minutes) stood at 83%. Besides, in the series on leucocytes (after 10 minutes), the “radioactivity associated” value is given as 89%. The “radioactivity associated” value in the series with leucocytes (after two minutes) is 60%. In addition, the “difference in brain uptake of the d- and l-enantiomers (factor)” value in series [7] is recorded as 1.6.

As to `CC(=NO)C(C)NCCCNC(C)C(C)=NO` (racemic) [Compound 2, 4,8-Diaza-3,9-dimethylundecane-2,10-dione bis oxime], in [1], the remaining at 2 min amounted to 82%, the remaining at 1 h amounted to 60%, the remaining at 2 h was found to be 47% and the “in vitro stability of the Tc-99m complex” value is reported as “greatly inferior to that of the complex of compound 1; also recorded: Far better in vitro stability; also recorded: rapid in vitro degradation”. Also, the “percent of the Tc-99m not in the form of the complex, Compound 2 relative to Compound 1” value in series [1] (at all times) is given as “more than twice as great”. Further, in series [2] (2 min pi), the “% id/organ, Blood” value was found to be 14.6 % id/organ; the “% id/organ, Brain” value is reported as 1.6 % id/organ; the “% id/organ, Heart” value came out at 0.5 % id/organ; the “% id/organ, Liver” value amounted to 10.9 % id/organ. In addition, in series [2] (1 hr pi), the “% id/organ, Blood” value is listed as 12.4 % id/organ; the “% id/organ, Brain” value worked out at 1.4 % id/organ; the “% id/organ, Heart” value came out at 0.5 % id/organ; the “% id/organ, Liver” value turned out to be 4.9 % id/organ. Further, the “% id in blood” value in [4] (14 minutes post injection) is 11.06 % id. Also, in [4] (40 minutes post injection), the “% id in blood” value is reported as 6.9 % id. Also, in series [4] (60 minutes post injection), the “% id in blood” value turned out to be 5.93 % id. Further, the “% id in blood” value in series [4] (250 minutes post injection) is reported as 3.98 % id. In addition, the “blood and tissue background clearance of activity in humans” value in series [4] (in words, compound 1 versus complex of compound 2) was “Better blood and tissue background clearance”. Further, in [5], the “Whole body distribution, Bladder” value is given as 21.02; the “Whole body distribution, Brain” value turned out to be 3.48; the “Whole body distribution, Liver” value turned out to be 13.21. In addition, the “quality of tomographic images of the brain” value in [6] is on record as “less good, due to a higher level of background radiation”.

As for `CC(=NO)C(C)NCC(C)CNC(C)C(C)=NO` (centres unmarked) [Compound 1 1], in [8], the “percentage of injected dose, Brain” value is reported as 4.30 percentage of injected dose; the “percentage of injected dose, Kidney” value was 4.0 percentage of injected dose; the “percentage of injected dose, Liver” value was 8.06 percentage of injected dose. In [9] (2 min), the “% id/organ, Blood” value is 11.0 % id/organ; the “% id/organ, Brain” value was 2.6 % id/organ; the “% id/organ, Liver” value was 9.6 % id/organ. Further, in series [9] (60 min), the “% id/organ, Blood” value is listed as 11.1 % id/organ; the “% id/organ, Brain” value is 2.2 % id/organ; the “% id/organ, Liver” value is listed as 7.7 % id/organ.

The values are drawn from patent US4789736A, “Complexes of technetium-99m with propylene amine oximes” (Amersham International plc, priority 1985, dated 1988).
